Experimental data from PubChem BioAssay AID2060885 (Molecular Pharmacology Branch, DTP, NCI, 2025).

System: NCI-H23 complex spheroids with HUVEC/MSC, viability
Experiment: Anticancer human tumor NCI-H23 cell line growth inhibition [RAS];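 further: spheroids exposed to compound for 7 days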;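 on viability, T/C: 100% = DMSO vehicle control viability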
Details: for IC50: curve of first compound; for viability, T/C: stronger effect = lower value; active means viability on the fitted dose curve at most 10% of control; inactive means the rest
Method in brief: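 Multi-cell-type spheroids: tumor cells plus HUVEC endothelial cells and mesenchymal stem cells. RAS-pathway inhibitors were combined with targeted agents, each dosed in half-log steps down from clinical Cmax, or from 10 microM when Cmax was unknown.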

C=CC(=O)Nc1cc(Nc2nccc(-c3cn(C)c4ccccc34)n2)c(OC)cc1N(C)CCN(C)C + CCn1c(-c2cc(N3CCN(C)CC3)cnc2C(C)OC)c2c3cc(ccc31)-c1csc(n1)CC(NC(=O)C1CC1C)C(=O)N1CCCC(N1)C(=O)OCC(C)(C)C2
< 3.16 nM: IC50 (second compound 0.000949 µM) | IC50 (second compound 0.003 µM) | IC50 (second compound 0.00949 µM) | IC50 (second compound 0.03 µM) | IC50 (second compound 0.0949 µM) | IC50 (second compound 0.3 µM)
inactive: viability, T/C (second compound 0.000949 µM, first compound 0.00316 µM) 51.5% | viability, T/C (second compound 0.000949 µM, first compound 0.01 µM) 45.7% | viability, T/C (second compound 0.000949 µM, first compound 0.0316 µM) 34.4% | viability, T/C (second compound 0.000949 µM, first compound 0.1 µM) 50.4% | viability, T/C (second compound 0.000949 µM, first compound 0.316 µM) 31.4% | viability, T/C (second compound 0.000949 µM, first compound 1 µM) 27.6% | viability, T/C (second compound 0.003 µM, first compound 0.00316 µM) 35.8% | viability, T/C (second compound 0.003 µM, first compound 0.01 µM) 32.6% | viability, T/C (second compound 0.003 µM, first compound 0.0316 µM) 30.1% | viability, T/C (second compound 0.003 µM, first compound 0.1 µM) 29.8% | viability, T/C (second compound 0.003 µM, first compound 0.316 µM) 27.1% | viability, T/C (second compound 0.003 µM, first compound 1 µM) 19% | viability, T/C (second compound 0.00949 µM, first compound 0.00316 µM) 30.7% | viability, T/C (second compound 0.00949 µM, first compound 0.01 µM) 27.9% | viability, T/C (second compound 0.00949 µM, first compound 0.0316 µM) 29.3% | viability, T/C (second compound 0.00949 µM, first compound 0.1 µM) 25.4% | viability, T/C (second compound 0.00949 µM, first compound 0.316 µM) 22.1% | viability, T/C (second compound 0.00949 µM, first compound 1 µM) 15.6% | viability, T/C (second compound 0.03 µM, first compound 0.00316 µM) 27.5% | viability, T/C (second compound 0.03 µM, first compound 0.01 µM) 23.6% | viability, T/C (second compound 0.03 µM, first compound 0.0316 µM) 29.1% | viability, T/C (second compound 0.03 µM, first compound 0.1 µM) 25% | viability, T/C (second compound 0.03 µM, first compound 0.316 µM) 17.5% | viability, T/C (second compound 0.03 µM, first compound 1 µM) 15% | viability, T/C (second compound 0.0949 µM, first compound 0.00316 µM) 18.7% | viability, T/C (second compound 0.0949 µM, first compound 0.01 µM) 19.6% | viability, T/C (second compound 0.0949 µM, first compound 0.0316 µM) 22.2% | viability, T/C (second compound 0.0949 µM, first compound 0.1 µM) 16.4% | viability, T/C (second compound 0.0949 µM, first compound 0.316 µM) 8.97% | viability, T/C (second compound 0.0949 µM, first compound 1 µM) 12.2% | viability, T/C (second compound 0.3 µM, first compound 0.00316 µM) 16.5% | viability, T/C (second compound 0.3 µM, first compound 0.01 µM) 18.1% | viability, T/C (second compound 0.3 µM, first compound 0.0316 µM) 17.2% | viability, T/C (second compound 0.3 µM, first compound 0.1 µM) 12.3% | viability, T/C (second compound 0.3 µM, first compound 0.316 µM) 10.5% | viability, T/C (second compound 0.3 µM, first compound 1 µM) 11.8%
